biological target: T1, human Edg-1 receptor (Homo sapiens, UniProt P21453); experiment: GTP-γ-S assay using human Edg-1 receptors (SPA, CHO Flp-In cell membrane preparation); type: biochemical; settings: test compound at 10 μM; high control 10 μM S1P regarded as 100% activation; background-corrected; triplicate
T1 construct: FLAG (N); expressed in transfected cells; membrane preparation
Outline: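 Membranes from CHO Flp-In cells stably overexpressing N-terminally FLAG-tagged human Edg-1 were used in a scintillation-proximity GTP-γ-S binding assay to measure receptor activation by compounds.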

T1 sequence (P21453 whole entry): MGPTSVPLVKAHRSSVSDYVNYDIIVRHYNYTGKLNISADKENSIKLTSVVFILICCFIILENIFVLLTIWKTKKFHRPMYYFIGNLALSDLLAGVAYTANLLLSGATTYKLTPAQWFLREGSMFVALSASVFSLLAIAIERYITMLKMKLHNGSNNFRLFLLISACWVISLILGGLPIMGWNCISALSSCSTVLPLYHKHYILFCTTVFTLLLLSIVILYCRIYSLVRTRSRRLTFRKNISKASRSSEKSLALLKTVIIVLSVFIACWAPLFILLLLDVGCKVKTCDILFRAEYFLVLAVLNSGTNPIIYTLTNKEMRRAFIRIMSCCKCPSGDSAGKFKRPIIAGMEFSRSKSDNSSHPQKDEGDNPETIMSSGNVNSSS

Structure (SMILES) | % Activation (Edg-1 receptor activation in percent of the activation by 10 μM S1P) [%]
CCCOc1nc(Oc2ccc(=O)n(C)n2)nc2oc(-c3cc(F)ccc3Cl)nc12 [Example 114, 6-[2-(2-chloro-5-fluoro-phenyl)-7-propoxy-oxazolo[5,4-d]pyrimidin-5-yloxy]-2-methyl-2H-oyridazin-3-one] | 96

same assay, conditions: test compound at 10 μM; high control 10 μM S1P regarded as 100% activation; background-corrected; triplicate; read-out: % Activation (Edg-1 receptor activation in percent of the activation by 10 μM S1P)

Structure (SMILES) | activation at 10 µM [%]
CCCOc1nc(Oc2ccc(Cl)cc2C)nc2oc(-c3cccc(C)c3)nc12 [Example 88, 5-(4-chloro-2-methyl-phenoxy)-7-propoxy-2-(3-methyl-phenyl)-oxazolo[5,4-d]pyrimidine] | 86
CCCOc1nc(Oc2ccc(C)c(Cl)c2)nc2oc(-c3cccc(C)c3)nc12 [Example 89, 5-(3-chloro-4-methyl-phenoxy)-7-propoxy-2-(3-methyl-phenyl)-oxazolo[5,4-d]pyrimidine] | 96
CCCOc1nc(Oc2ccc(C)cc2Cl)nc2oc(-c3cccc(C)c3)nc12 [Example 90, 5-(2-chloro-4-methyl-phenoxy)-7-propoxy-2-(3-methyl-phenyl)-oxazolo[5,4-d]pyrimidine] | 67
CCCOc1nc(Oc2c(C)cccc2Cl)nc2oc(-c3cccc(C)c3)nc12 [Example 91, 5-(2-chloro-6-methyl-phenoxy)-7-propoxy-2-(3-methyl-phenyl)-oxazolo[5,4-d]pyrimidine] | 105
CCCOc1nc(Oc2ccc(C#N)cc2OC)nc2oc(-c3cccc(C)c3)nc12 [Example 92, 3-methoxy-4-(7-propoxy-2-(3-methyl-phenyl)-oxazolo[5,4-d]pyrimidin-5-yloxy)-benzonitrile] | 51
CCCOc1nc(Oc2cccc(OCC)c2)nc2oc(-c3cccc(C)c3)nc12 [Example 93, 5-(3-ethoxy-phenoxy)-7-propoxy-2-(3-methyl-phenyl)-oxazolo[5,4-d]pyrimidine] | 60
CCCOc1nc(Oc2cc(F)ccc2F)nc2oc(-c3cccc(C)c3)nc12 [Example 94, 5-(2,5-difluoro-phenoxy)-7-propoxy-2-(3-methyl-phenyl)-oxazolo[5,4-d]pyrimidine] | 122
CCCOc1nc(Oc2ccc(F)cc2F)nc2oc(-c3cccc(C)c3)nc12 [Example 95, 5-(2,4-difluoro-phenoxy)-7-propoxy-2-(3-methyl-phenyl)-oxazolo[5,4-d]pyrimidine] | 107
CCCOc1nc(Oc2ccccc2C(C)(C)C)nc2oc(-c3cccc(C)c3)nc12 [Example 96, 5-(2-tert-butyl-phenoxy)-7-propoxy-2-(3-methyl-phenyl)-oxazolo[5,4-d]pyrimidine] | 67
CCCOc1nc(Oc2c(F)cccc2F)nc2oc(-c3cccc(C)c3)nc12 [Example 97, 5-(2,6-difluoro-phenoxy)-7-propoxy-2-(3-methyl-phenyl)-oxazolo[5,4-d]pyrimidine] | 124
CCCOc1nc(Oc2cccc(C)c2)nc2oc(-c3cccc(C)c3)nc12 [Example 98, 7-propoxy-2-(3-methyl-phenyl)-5-(3-methyl-phenyl)oxy-oxazolo[5,4-d]pyrimidine] | 107
CCCOc1nc(Oc2ccc(F)cc2OC)nc2oc(-c3cccc(C)c3)nc12 [Example 99, 5-(4-fluoro-2-methoxy-phenoxy)-7-propoxy-2-(3-methyl-phenyl)-oxazolo[5,4-d]pyrimidine] | 91
CCCOc1nc(Oc2cc(F)cc(F)c2Cl)nc2oc(-c3cccc(C)c3)nc12 [Example 100, 5-(2-chloro-3,5-difluoro-phenoxy)-7-propoxy-2-(3-methyl-phenyl)-oxazolo[5,4-d]pyrimidine] | 108
CCCOc1nc(Oc2cc(F)ccc2Cl)nc2oc(-c3cccc(C)c3)nc12 [Example 101, 5-(2-chloro-5-fluoro-phenoxy)-7-propoxy-2-(3-methyl-phenyl)-oxazolo[5,4-d]pyrimidine] | 104
Cc1cc(Oc2nc(OCC3CC3)c3nc(-c4cccc(F)c4)oc3n2)n(C)n1 [Example 102, 7-cyclopropylmethoxy-5-(2,5-dimethyl-2H-pyrazol-3-yloxy)-2-(3-fluoro-phenyl)-oxazolo[5,4-d]pyrimidine] | 130
CCCOc1nc(Oc2ccccc2F)nc2oc(-c3cccc(C)c3)nc12 [Example 103, 5-(2-fluoro-phenoxy)-7-propoxy-2-(3-methyl-phenyl)-oxazolo[5,4-d]pyrimidine] | 109
Fc1ccc(Cl)c(-c2nc3c(OCC4CC4)nc(Oc4ccccc4F)nc3o2)c1 [Example 104, 2-(2-chloro-5-fluoro-phenyl)-7-cyclopropylmethoxy-5-(2-fluoro-phenoxy)-oxazolo[5,4-d]pyrimidine] | 117
CCCOc1nc(Oc2ccccc2)nc2oc(-c3ccc(Cl)c(Cl)c3)nc12 [Example 105, 2-(3,4-dichloro-phenyl)-5-phenoxy-7-propoxy-oxazolo[5,4-d]pyrimidine] | 88
Clc1ccc(-c2nc3c(OCC4CC4)nc(Oc4cccnc4)nc3o2)cc1Cl [Example 106, 7-cyclopropylmethoxy-2-(3,4-dichloro-phenyl)-5-(pyridin-3-yloxy)-oxazolo[5,4-d]pyrimidine] | 117
CCCOc1nc(Oc2ccccc2F)nc2oc(-c3cccnc3)nc12 [Example 107, 5-(2-fluoro-phenoxy)-7-propoxy-2-pyridin-3-yl-oxazolo[5,4-d]pyrimidine] | 129
Fc1cncc(Oc2nc(OCC3CC3)c3nc(-c4ccc(Cl)c(Cl)c4)oc3n2)c1 [Example 108, 7-cyclopropylmethoxy-2-(3,4-dichloro-phenyl)-5-(5-fluoro-pyridin-3-yloxy)-oxazolo[5,4-d]pyrimidine] | 98
Clc1ccc(-c2nc3c(OCC4CC4)nc(Oc4ccccc4)nc3o2)cc1Cl [Example 110, 7-cyclopropylmethoxy-2-(3,4-dichloro-phenyl)-5-phenoxy-oxazolo[5,4-d]pyrimidine] | 80
CCCOc1nc(Oc2ccc(C)cc2F)nc2oc(-c3cccc(C)c3)nc12 [Example 111, 5-(2-fluoro-4-methyl-phenoxy)-7-propoxy-2-(3-methyl-phenyl)-oxazolo[5,4-d]pyrimidine] | 88
CCCOc1nc(Oc2ccc(SC(F)(F)F)cc2)nc2oc(-c3cccc(C)c3)nc12 [Example 112, 7-propoxy-2-(3-methyl-phenyl)-5-(4-trifluoromethylsulfanyl-phenoxy)-oxazolo[5,4-d]pyrimidine] | 46
CCCOc1nc(NC2CCC(C)CC2)nc2oc(-c3cc(F)ccc3Cl)nc12 (centres unmarked) [Example 113, [2-(2-chloro-5-fluoro-phenyl)-7-propoxy-oxazolo[5,4-d]pyrimidin-5-yl]-(4-methyl-cyclohexyl)-amine] | 52
CCCOc1nc(Oc2cc(Cl)ccc2C)nc2oc(-c3cccc(C)c3)nc12 [Example 115, 5-(5-chloro-2-methyl-phenoxy)-7-propoxy-2-(3-methyl-phenyl)-oxazolo[5,4-d]pyrimidine] | 96
CCCOc1nc(Oc2cccc(SC(F)(F)F)c2)nc2oc(-c3cccc(C)c3)nc12 [Example 116, 7-propoxy-2-(3-methyl-phenyl)-5-(3-trifluoromethylsulfanyl-phenoxy)-oxazolo[5,4-d]pyrimidine] | 70
CCCOc1nc(OC2CCOCC2)nc2oc(-c3cc(F)ccc3Cl)nc12 [Example 117, 2-(2-chloro-5-fluoro-phenyl)-7-propoxy-5-(tetrahydro-pyran-4-yloxy)-oxazolo[5,4-d]pyrimidine] | 63

From patent US8785439B2, “2,5,7-substituted oxazolopyrimidine derivatives” (Sanofi, priority 2010, dated 2014)
